Experimental findings from US8216580B2, “Sulfatases and methods of use thereof” (The Regents of the University of California, priority 2000, dated 2012) are described below.

The subject of series [1] is Wnt signaling. The series can be described thus: TCF-luciferase (TOPFlash/FOPFlash) Wnt reporter assay in pancreatic adenocarcinoma cell lines. In kind it is cell-based, human. Conditions: for Wnt activity: 16 hours with conditioned medium of HEK 293 clones. How it is done: (§1) Cells were plated in 24 well plates and transfected with either 0.3 μg TOPFlash or FOPFlash and 0.01 μg Renilla control plasmid (Promega) using Fugene (Roche) according to the manufacturer's procedure. After 48 hours cells were lysed and analyzed utilizing the Dual Luciferase Reporter Assay system (Promega). Luciferase activity was normalized to control Renilla activity.
To search for evidence that endogenous expressed sulfatases in pancreatic adenocarcinoma cell lines regulate Wnt signaling, the method of gene silencing was used. An antisense cDNA against both sulfatases was transiently transfected into four different cell lines. As a control, cells were transfected with a MMP-9 antisense cDNA. Wnt signaling was quantified by TCF-luciferase activity.
HSulf-1 DCC and HSulf-2 DCC mutants are as follows: 1) cysteines 87 and 88 of HSulf-1 (designated as HSulf-1 ΔCC or HSulf-1 DCC) were changed to alanines; and cysteines 88 and 89 of HSulf-2 (designated as HSulf-2 ΔCC or HSulf-2 DCC) were changed to alanines (see Example 9, above).
The effect of conditioned medium derived from the HEK 293 cell lines on Wnt signaling was determined. Pancreatic adenocarcinoma cells were incubated for 16 hours with conditioned medium derived from the described HEK 293 clones; and the TOP/FOPflash system was used to quantify Wnt signaling.
In order to compare proliferation of BxPC3 sil413 cells and mock transfected BxPC3 cells in vitro, GFP+ (HSulf-2 positive) and GFP− (HSulf-2 negative) cells were co-cultured; and the ratio of GFP+ to GFP− cells was followed over time. […] Additionally, using sorted BxPC3 si1413 cells we examined proliferation performing BrdU incorporation experiments (FIG. 21D).
(A reporter such as luciferase makes a cellular process visible.)

Series [2] in a line: Arylsulfatase activity assay with 4-MUS substrate. It is filed as biochemical. Here is the method:
The 100-fold concentrated conditioned medium (CM) derived from each transfection of CHO cells as described above was dialyzed into 50 mM HEPES, pH 8.0. The His-tagged fusion proteins were bound to a Ni-NTA resin (QIAGEN) by rotation at 4° C. over night, then washed with 50 mM HEPES (pH 8.0), 3 times. 250 mM imidazole in 50 mM HEPES, pH 8.0 was used to elute the His-tagged fusion proteins from Ni-NTA. The resins with boud material or the eluates were mixed with 10 mM 4-methylumbelliferyl-sulfate (4-MUS; a substrate for sulfatases), and 10 mM lead acetate, in a total volume of 100 μl. The reaction mixtures were incubated at 37° C. for various periods of time. Reactions were terminated by the addition of 100 μl of 0.5 M Na2CO3/NaHCO3, pH 10.7 to 20 μl of the reaction mixture. The fluorescence of 4-methylumbelliferone was measured on a Multi-Well Plate Reader CytoFluorII (PerSeptive Biosystems). The fluorescence was determined at an excitation wavelength of 360 nm and emission wavelength of 460 nm. A substrate dose response curve was performed over the concentration range of 1 to 10 mM 4-MUS.
The synthetic fluorogenic compound 4-methylumbelliferyl sulfate (4-MUS) serves as a substrate for most sulfatases, both in the lysosomal and non-lysosomal classes. CHO cells were transfected with a cDNA for HSulf-1 or HSulf-2 or a vector control. Conditioned medium was collected and incubated with nickel resin (Ni-NTA) to bind the His-tagged recombinant proteins. The bead-bound material was assayed for activity on 4-MUS. For both enzymes, hydrolysis depended on time of reaction (FIG. 15A), concentration of substrate (FIG. 15B), and amount of CM (FIG. 15C). From the substrate dose-response curves of FIG. 15B and based on estimates of Sulf protein levels in CM, we approximated Vmax for the two Sulfs to be in the range of 1000-2000 nmol per min per mg of Sulf protein. Human glucosamine-6-sulfatase has a considerably lower Vmax against 4-MUS ([…]) whereas the Vmax of human N-acetylgalactosamine-4-sulfatase (arylsulfatase B) is much higher (48000).
HSulf-1, HSulf-2 or their mutated forms (HSulf-1 ΔCC and HSulf-2 ΔCC) was purified from the conditioned medium of transfected CHO cells by binding to Ni-NTA beads. A) The bead-bound material was tested for arylsulfatase activity as a function of time against 10 mM 4-MUS substrate at pH 8. The “no-enzyme” control was based on testing conditioned medium from vector-control transfected CHO cells. No activity was detected in the absence of added substrate (not shown). […] The activity of each Sulf was determined relative to that of beads exposed to an equivalent volume of vector-control conditioned medium. The activity of HG6S was determined (24 hr incubation) relative to that of the buffer. […]

Series [3] concerns Wnt signaling. The series can be described thus: TCF-luciferase (TOPFlash/FOPFlash) Wnt reporter assay in HEK 293 cells co-cultured with Wnt-expressing 3T3 fibroblasts. It is filed as cell-based, human. Conditions: stably transfected HEK 293 cells co-cultured with Wnt1 or Wnt4 expressing 3T3 fibroblasts. How it is done:
as §1
To assay HSulf influence on Wnt signaling in HEK 293 cells, HEK 293 cells were transfected with TOP/FOPFlash and Renilla control plasmid. 24 hours later the medium was changed, and Wnt1-transfected 3T3 […] fibroblasts were added. 24 hours later, Luciferase activity was measured, as described above.
Dhoot et al. (2001) supra; Ai et al. (2003) J Cell Biol 162:341-351. In order to determine if the human Sulfs affect Wnt signaling, the effect of HSulf-1 and -2, when overexpressed in a heterologous expression system on Wnt signaling, was analyzed. For this purpose, HEK 293 cells stably transfected with either HSulf-1 (HS1) or HSulf-2 (HS2) were co-cultured with Wnt1 or Wnt4 expressing 3T3 fibroblasts. Wnt activity was measured by utilizing a quantitative TCF-luciferase reporter gene (FOPFlash/TOPFlash system). van de Wetering et al. (1997) Cell 88:789-799.

For “HSulf-2 ΔCC: catalytically inactive HSulf-2, cysteines 88 and 89 mutated to alanines (CC88, 89AA)”, the values for the Wnt activity result with Wnt signaling [1] (CFPAC-1 cells) and with Wnt signaling [1] (cell lines inhibited in proliferation) were “did no respond” and “significant decrease”, respectively. Moreover, the “inhibition of Wnt signaling (TCF-luciferase activity)” value with Wnt signaling [1] (transient transfection, in three of the four examined pancreatic adenocarcinoma cell lines) was “about 50%”. Moreover, in series [2] (4-MUS, pH 8, 2 hr, mutant protein levels in CM equivalent to wild-type), the “arylsulfatase activity of cysteine-to-alanine mutants” value was “Lack of the activity”.
In the case of “HSulf-2: Human SULF2, an 870 amino acid sulfatase protein, SEQ ID NO:06; expressed with C-terminal Myc-His tag”, in the series on Wnt signaling [3], the “increase of Wnt activity” value is on record as “two-fold”. Besides, the sulfatase activity entry in series [2] (His-tagged fusion proteins from CHO conditioned medium, 10 mM 4-MUS, 37° C.) is given as “Time-dependent sulfatase activity was detected”.
